Assay results published in patent US20180177792A1, “COMPOSITIONS AND METHODS FOR TREATING PATIENTS WITH RTK MUTANT CELLS” (IGNYTA, INC., priority 2015, published 2018).
Where two headings read alike, the source gives them in different places. Values belong to the compound of their own block, whether it stands above or below them.

Assays:
[1] = system: mutant cells harboring the TrkA-G595C mutation or the TrkA-G667C mutation; assay: screen for inhibition of proliferation of mutant KM12 and Ba/F3-tel/trkA cells; assay type: cell-based
Procedure: (§1) Each treatment condition was performed in duplicate.
(§2) In this experiment, each of the following cell lines: Ba/F3-tel/trkA, Ba/F3-tel/trkA-10nMA (G595R), KM12-DMSO, KM12-30nM101-B (G667C), KM12-100nM101-B (G667C), KM12-300nM101-B (G595R) was screened against a number of chemical compounds.

BaF3-tel/trkB cells = molecular target: T1, BaF3-tel/trkB cells (Homo sapiens, UniProt Q16620); assay: growth inhibition, Ba/F3-tel/trkB cells; assay type: cell-based, murine; conditions: read-out: IC50, Table 9
T1 construct: fused on or other part: P41212 (Transcription factor ETV6)
T1 sequence (Q16620 whole entry, change not shown, the tested form may be a part): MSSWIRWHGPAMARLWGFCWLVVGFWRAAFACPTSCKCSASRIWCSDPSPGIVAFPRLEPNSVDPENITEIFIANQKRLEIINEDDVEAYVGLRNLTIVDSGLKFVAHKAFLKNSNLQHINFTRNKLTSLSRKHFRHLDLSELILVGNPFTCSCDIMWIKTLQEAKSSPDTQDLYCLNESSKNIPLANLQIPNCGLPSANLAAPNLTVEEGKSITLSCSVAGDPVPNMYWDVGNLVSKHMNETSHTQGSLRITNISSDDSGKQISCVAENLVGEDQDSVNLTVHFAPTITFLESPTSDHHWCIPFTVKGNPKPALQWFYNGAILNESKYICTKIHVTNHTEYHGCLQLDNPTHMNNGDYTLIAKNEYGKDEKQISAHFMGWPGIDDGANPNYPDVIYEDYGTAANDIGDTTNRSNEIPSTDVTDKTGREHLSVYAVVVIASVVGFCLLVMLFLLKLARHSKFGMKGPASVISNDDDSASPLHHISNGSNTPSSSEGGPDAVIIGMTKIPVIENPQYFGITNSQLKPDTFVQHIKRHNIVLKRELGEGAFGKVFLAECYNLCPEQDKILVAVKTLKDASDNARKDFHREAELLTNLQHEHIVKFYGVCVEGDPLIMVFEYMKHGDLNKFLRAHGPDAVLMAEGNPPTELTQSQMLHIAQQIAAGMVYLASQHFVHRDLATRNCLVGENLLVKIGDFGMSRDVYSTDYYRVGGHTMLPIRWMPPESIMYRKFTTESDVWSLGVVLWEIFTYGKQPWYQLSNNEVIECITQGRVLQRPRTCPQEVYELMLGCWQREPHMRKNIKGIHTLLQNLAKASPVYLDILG

BaF3-tel/trkC cells = molecular target: T2, BaF3-tel/trkC cells (Homo sapiens, UniProt Q16288); assay: growth inhibition, Ba/F3-tel/trkC cells; assay type: cell-based, murine
T2 construct: fused on or other part: P41212 (Transcription factor ETV6)
T2 sequence (Q16288 whole entry, change not shown, the tested form may be a part): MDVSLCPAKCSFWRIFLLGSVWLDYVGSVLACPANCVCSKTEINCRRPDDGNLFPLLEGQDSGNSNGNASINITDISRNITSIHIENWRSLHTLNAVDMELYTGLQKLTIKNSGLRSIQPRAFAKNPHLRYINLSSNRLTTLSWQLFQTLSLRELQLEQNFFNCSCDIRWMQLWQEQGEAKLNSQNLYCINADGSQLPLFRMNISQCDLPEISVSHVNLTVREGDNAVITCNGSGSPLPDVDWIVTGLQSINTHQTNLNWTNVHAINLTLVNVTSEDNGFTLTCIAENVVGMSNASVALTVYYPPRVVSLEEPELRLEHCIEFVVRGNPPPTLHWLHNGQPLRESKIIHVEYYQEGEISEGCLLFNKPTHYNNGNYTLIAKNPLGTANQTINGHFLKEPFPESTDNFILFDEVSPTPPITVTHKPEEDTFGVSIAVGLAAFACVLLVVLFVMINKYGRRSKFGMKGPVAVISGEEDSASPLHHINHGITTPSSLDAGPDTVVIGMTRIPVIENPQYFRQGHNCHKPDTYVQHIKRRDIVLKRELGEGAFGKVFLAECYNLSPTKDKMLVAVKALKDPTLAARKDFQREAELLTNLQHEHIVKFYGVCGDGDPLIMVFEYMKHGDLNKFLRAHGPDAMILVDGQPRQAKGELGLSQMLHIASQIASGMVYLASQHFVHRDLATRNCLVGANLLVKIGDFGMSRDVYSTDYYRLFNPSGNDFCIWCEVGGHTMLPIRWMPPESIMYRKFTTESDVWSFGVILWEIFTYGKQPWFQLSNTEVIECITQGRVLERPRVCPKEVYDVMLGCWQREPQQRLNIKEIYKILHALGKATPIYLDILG

[2] = system: parental KM12 cells (KM12-DMSO; KM12-TPM3/trkA_WT); assay: growth inhibition (CellTiter-Glo, 3 days), parental KM12 cells cultured in DMSO
[3] = system: KM12-TPM3/trkA_G595R cells; assay: growth inhibition screen, KM12 mutant cells with G595R; assay type: cell-based, human
Procedure: as §1, §2

[4] = system: KM12-TPM3/trkA_G667C cells; assay: growth inhibition screen, KM12 mutant cells with G667C; assay type: cell-based, human
Procedure: as §1, §2

BaF3-tel/trkA_WT cells = molecular target: T3, BaF3-tel/trkA_WT cells (Homo sapiens, UniProt P04629); assay: growth inhibition, parental Ba/F3-tel/trkA cells; assay type: cell-based, murine
T3 construct: Input Ba/F3-Tel/TrkA cell line was an engineered cell line harboring a recombinant TrkA fusion gene ETV6-TrkA; fused on or other part: P41212 (Transcription factor ETV6)
T3 sequence (P04629 whole entry, change not shown, the tested form may be a part): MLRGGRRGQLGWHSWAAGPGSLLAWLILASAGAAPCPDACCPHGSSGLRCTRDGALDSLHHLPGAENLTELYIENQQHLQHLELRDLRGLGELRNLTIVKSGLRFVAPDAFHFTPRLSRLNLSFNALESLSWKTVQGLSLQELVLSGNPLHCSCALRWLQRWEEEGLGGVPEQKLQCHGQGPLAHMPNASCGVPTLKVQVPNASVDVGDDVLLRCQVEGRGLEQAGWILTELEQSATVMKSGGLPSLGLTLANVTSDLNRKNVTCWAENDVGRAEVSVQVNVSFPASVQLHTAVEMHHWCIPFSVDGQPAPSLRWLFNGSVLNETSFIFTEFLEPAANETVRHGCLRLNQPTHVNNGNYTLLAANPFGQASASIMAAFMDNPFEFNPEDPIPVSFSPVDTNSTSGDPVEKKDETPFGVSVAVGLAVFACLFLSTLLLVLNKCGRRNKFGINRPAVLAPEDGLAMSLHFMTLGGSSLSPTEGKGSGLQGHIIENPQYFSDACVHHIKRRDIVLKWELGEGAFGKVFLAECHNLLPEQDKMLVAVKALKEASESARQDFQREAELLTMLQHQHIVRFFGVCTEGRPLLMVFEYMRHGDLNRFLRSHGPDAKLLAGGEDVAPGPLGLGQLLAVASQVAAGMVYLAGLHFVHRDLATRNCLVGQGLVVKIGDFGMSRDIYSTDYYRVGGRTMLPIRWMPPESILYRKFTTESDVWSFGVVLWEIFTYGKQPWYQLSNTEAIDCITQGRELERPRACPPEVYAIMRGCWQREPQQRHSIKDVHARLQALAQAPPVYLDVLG
Procedure: (§3) Input Ba/F3-Tel/TrkA cell line was an engineered cell line harboring a recombinant TrkA fusion gene ETV6-TrkA. […] Cell viability was evaluated by trypan blue and counted every two days (FIG. 9).
as §1, §2

[5] = molecular target: T4, BaF3-tel/trkA-10 nMA(G595R) cells (Homo sapiens, UniProt P04629, G595R, cells depend on it); assay type: cell-based, murine; conditions: BaF3-tel/trkA_G595R
T4 construct: IC50; other: BaF3-tel/trkA-10 nMA(G595R); fused on or other part: P41212 (Transcription factor ETV6)
T4 sequence (P04629 whole entry G595R, the tested form may be a part): as the sequence (P04629 whole entry, change not shown, the tested form may be a part) above, with G595R counted along it
Procedure: as §3, §1, §2

KM12-30 nM-B cells = assay: cells; conditions: Homo sapiens
Procedure: as §1

KM12-3 nM A cells = assay: cells; conditions: Homo sapiens
Procedure: as §1

KM12-100 nM-B cells = assay: cells; conditions: Homo sapiens
Procedure: as §1

KM12-10 nM A cells = assay: cells; conditions: Homo sapiens
Procedure: as §1

KM12-1 nM A cells = assay: cells; conditions: Homo sapiens
Procedure: as §1

KM12-300 nM-B cells = assay: cells; conditions: Homo sapiens
Procedure: as §1

KM12-30 nM A cells = assay: cells; conditions: for IC50: Homo sapiens
Procedure: as §1

KM12-100 nM A cells = assay: cells; conditions: Homo sapiens
Procedure: as §1

[6] = system: KM12-100 nM-B (no drug) cells; assay: cells; conditions: Homo sapiens
Procedure: as §1

[7] = system: BaF3-tel/trkA-10 nMA(G595R) cells; assay type: cell-based, murine
Procedure: as §3, §1, §2

[8] = Table 9, read-out: IC50 (the source's name)
[9] = Homo sapiens, KM12-TPM3/trkA_G595R, Table 8, in μM, read-out: IC50
[10] = Homo sapiens, KM12-TPM3/trkA_G667C, Table 8, in μM, read-out: IC50
[11] = Table 8, in μM, read-out: IC50 (the source's name)
[12] = Table 8, cells without unit, read-out: IC50 (the source's name)

Compound: CNC(=O)c1cc(Oc2ccc(NC(=O)Nc3cc(C(C)(C)C)nn3-c3ccc4ncccc4c3)c(F)c2)ccn1 [rebastinib, 4-[4-[(5-tert-butyl-2-quinolin-6-ylpyrazol-3-yl)carbamoylamino]-3-fluorophenoxy]-N-methylpyridine-2-carboxamide]
inhibitory activity against mutant cells [1]: significant inhibitory activity

Compound: COC(=O)[C@@]1(O)C[C@H]2O[C@]1(C)n1c3ccccc3c3c4c(c5c6ccccc6n2c5c31)C(=O)NC4 [Compound K252a, 9,12-Epoxy-1H-diindolo[1,2,3-fg:3′,2′,1′-kl]pyrrolo[3,4-i][1,6]benzodiazocine-10-carboxylic acid, 2,3,9,10,11,12-hexahydro-10-hydroxy-9-methyl-1-oxo-, methyl ester, (9S,10R,12R)-]
GI50 (BaF3-tel/trkB cells): 0.0453 µM | GI50 (BaF3-tel/trkC cells; [8]): 0.0143 µM

Compound: Cc1cc(Nc2ncc(Cl)c(Nc3ccccc3S(=O)(=O)C(C)C)n2)c(OC(C)C)cc1C1CCNCC1 [ceritinib, 5-chloro-2-N-(5-methyl-4-piperidin-4-yl-2-propan-2-yloxyphenyl)-4-N-(2-propan-2-ylsulfonylphenyl)pyrimidine-2,4-diamine]
IC50 ([2]; Homo sapiens, KM12): 0.269 µM | IC50 [3, 9]: > 1 µM | IC50 [4, 10]: > 1 µM | GI50 (BaF3-tel/trkA_WT cells; [11]): > 1 µM | GI50 [5, 11]: > 1 µM

Compound: CC(C)Oc1cc(Nc2nc(N[C@@H](C)c3ccc(F)cn3)ncc2Cl)n[nH]1 [AZ-23, 5-chloro-2-N-[(1S)-1-(5-fluoropyridin-2-yl)ethyl]-4-N-(3-propan-2-yloxy-1H-pyrazol-5-yl)pyrimidine-2,4-diamine]
GI50 (BaF3-tel/trkB cells): 0.0033 µM | GI50 (BaF3-tel/trkC cells; read-out: IC50, Table 9): 0.0022 µM

GI50 (BaF3-tel/trkA_WT cells; [12]): 0.179 µM | GI50 [5, 12]: 0.433 µM
Compound: C[C@@H](Oc1cc(-c2cnn(C3CCNCC3)c2)cnc1N)c1c(Cl)ccc(F)c1Cl [crizotinib, (R)-3-[1-(2,6-Dichloro-3-fluorophenyl)ethoxy]-5-[1-(piperidin-4-yl)-1H-pyrazol-4-yl]pyridin-2-amine]
IC50 ([2]; Homo sapiens, KM12): 0.0766 µM | IC50 [3, 9]: > 1 µM | IC50 [4, 10]: > 1 µM

Compound: COC[C@@H](C)Nc1cc(N2CCN(C)CC2)ccc1C(=O)Nc1n[nH]c2ccc(S(=O)(=O)c3cc(F)cc(F)c3)cc12 [Compound 2, N-[5-(3,5-difluoro-benzenesulfonyl)-1H-indazol-3-yl]-2-((R)-2-methoxy-1-methyl-ethylamino)-4-(4-methyl-piperazin-1-yl) benzamide]
IC50 ([2]; KM12-TPM3/trkA_WT, Table 8, cells without unit): 0.0061 µM | IC50 ([3]; KM12-TPM3/trkA_G595R, Table 8, cells without unit, read-out: IC50): 0.424 µM | IC50 ([4]; KM12-TPM3/trkA_G667C, Table 8, cells without unit, read-out: IC50): 0.466 µM | inhibitory activity against mutant cells [1]: significant inhibitory activity | GI50 (BaF3-tel/trkA_WT cells; [12]): 0.0023 µM | GI50 [5, 12]: 0.846 µM

Compound: CN[C@@H]1C[C@H]2O[C@@](C)([C@@H]1OC)n1c3ccccc3c3c4c(c5c6ccccc6n2c5c31)C(=O)NC4 [Staurosporine, 9,13-Epoxy-1H,9H-diindolo[1,2,3-gh:3′,2′,1′-lm]pyrrolo[3,4-j][1,7]benzodiazonin-1-one, 2,3,10,11,12,13-hexahydro-10-methoxy-9-methyl-11-(methylamino)-, (9S,10R,11R,13R)-]
GI50 (BaF3-tel/trkB cells): 0.0042 µM

Compound: COc1cc(N2CCC(N3CCN(C)CC3)CC2)ccc1Nc1ncc(Cl)c(Nc2ccccc2S(=O)(=O)C(C)C)n1 [NVP-TAE684, 5-chloro-N2-[2-methoxy-4-[4-(4-methyl-1-piperazinyl)-1-piperidinyl]phenyl]-N4-[2-[(1-methylethyl)sulfonyl]phenyl]-2,4-Pyrimidinediamine]
inhibitory activity against mutant cells [1]: significant inhibitory activity

Compound: C[C@H]1Oc2cc(cnc2N)-c2c(nn(C)c2C#N)CN(C)C(=O)c2ccc(F)cc21 [PF06463922, (10R)-7-amino-12-fluoro-10,15,16,17-tetrahydro-2,10,16-trimethyl-15-oxo-2H-4,8-Methenopyrazolo[4,3-h][2,5,11]benzoxadiazacyclotetradecine-3-carbonitrile]
IC50 ([2]; Homo sapiens, KM12): 0.206 µM | IC50 ([3]; Homo sapiens, KM12): > 1 µM | IC50 ([4]; Homo sapiens, KM12): > 1 µM | GI50 (BaF3-tel/trkA_WT cells; read-out: IC50, Table 8, cells without unit): 0.386 µM | GI50 ([5]; read-out: IC50, Table 8, in μM): > 1 µM

Compound: CN1CCN(c2ccc(C(=O)Nc3n[nH]c4ccc(Cc5cc(F)cc(F)c5)cc34)c(NC3CCOCC3)c2)CC1 [entrectinib, N-[5-(3,5-difluorobenzyl)-1H-indazol-3-yl]-4-(4-methyl-piperazin-1-yl)-2-(tetrahydro-pyran-4-ylamino)-benzamide]
IC50 ([2]; Homo sapiens, KM12, 72 h, KM12-DMSO-A, 3-day growth inhibition, Table 3): 0.00126 µM | IC50 ([2]; Homo sapiens, KM12, 672 h, KM12-DMSO, Table 4, after about 4 weeks of increased entrectinib in Set A): 0.00395 µM | IC50 ([2]; Homo sapiens, KM12, KM12-DMSO-B, Table 5): 0.00114 µM | IC50 ([2]; Homo sapiens, KM12, KM12-TPM3/trkA_WT, Table 8, cells without unit): 0.0034 µM | GI50 (BaF3-tel/trkB cells): 0.0087 µM | IC50 ([4]; Homo sapiens, KM12): 0.367 µM | IC50 (KM12-30 nM-B cells): 0.0938 µM | IC50 (KM12-3 nM A cells; KM12): 0.00436 µM | IC50 (KM12-3 nM A cells; KM12, 72 h): 0.00164 µM | IC50 (KM12-100 nM-B cells): 0.0704 µM | IC50 (KM12-10 nM A cells; KM12): 0.00465 µM | IC50 (KM12-10 nM A cells; KM12, 72 h): 0.00171 µM | IC50 (KM12-1 nM A cells; KM12): 0.00419 µM | IC50 (KM12-1 nM A cells; KM12, 72 h): 0.00157 µM | IC50 (KM12-300 nM-B cells): 0.209 µM | IC50 (KM12-30 nM A cells; KM12): 0.00647 µM | IC50 (KM12-30 nM A cells; KM12, 72 h): 0.00341 µM | increase of IC50 value (KM12-30 nM A cells; KM12-30 nM-A treated cells versus cells cultured in DMSO and 1-10 nM entrectinib): ~2 fold | IC50 (KM12-100 nM A cells): 0.00662 µM | IC50 [6]: 0.0854 µM | GI50 (BaF3-tel/trkC cells; [8]): 0.0055 µM | inhibitory activity against mutant cells [1]: significant inhibitory activity | IC50 higher than that of the control parental line [7]: > 100 fold

Compound: O=C(Nc1cnn2ccc(N3CCC[C@@H]3c3cc(F)ccc3F)nc12)N1CC[C@H](O)C1 [LOXO-101, (3S)-N-[5-[(2R)-2-(2,5-difluorophenyl)-1-pyrrolidinyl]pyrazolo[1,5-a]pyrimidin-3-yl]-3-hydroxy-1-pyrrolidinecarboxamide]
IC50 ([2]; Homo sapiens, KM12): 0.027 µM | IC50 [3, 9]: > 1 µM | IC50 [4, 10]: > 1 µM
